{
  "source": "patent US7868135B2",
  "about": "“Compositions of lipopeptide antibiotic derivatives and methods of use thereof” (priority 2003, dated 2011)",
  "key": {"[1]": {"tested_on": "S. aureus Smith (SAU0017, ATCC 19636)", "test": "Intraperitoneal murine model of protection against infection (ED50, Table 21)", "assay_type": "in vivo, Staphylococcus aureus", "conditions": "Swiss CD1 mice infected i.p., compound i.v.", "source_text": "(§1) A variety of in vivo models may be used to assess the antimicrobial properties of lipopeptide derivative compounds of this disclosure. For example, antimicrobial compounds of the instant disclosure may be tested for efficacy by measuring a compound's ability to protect a mouse against a microbial infection, such as an infection or disease caused by or related to Gram-positive bacteria, including Staphylococcus aureus, Streptococcus pneumoniae, and Enterococcus faecalis. […] A certain period after infection, mice are then individually treated, for example intravenously (i.v.), with a lipopeptide derivative of this disclosure.\n(§2) Antimicrobial lipopeptide derivatives of the instant invention were tested for antimicrobial activity against Gram-positive bacteria in an intraperitoneal (i.p.) murine model (i.e., bacteria were injected i.p. and lipopeptide compounds were administered intravenously (i.v.)). Mice were infected with Staphylococcus aureus, Streptococcus pneumoniae, or Enterococcus faecalis, which were prepared as follows: S. aureus Smith (SAU0017, ATCC 19636) were grown in culture overnight on trypticase soy broth, harvested and then resuspended in fresh media containing 5% mucin (Sigma Chemical Co.); S. pneumoniae (SPN 0032, ATCC 10813) were grown overnight on blood agar plates and re-suspended in 0.9% sterile saline; and E. faecalis EFS0040 (clinical isolate) were grown overnight in culture on blood heart infusion broth, washed and resuspended in 0.9% saline and mixed with equal volume of sterile fecal rat extract. Swiss CD1 mice were each infected i.p. with bacteria at the following doses: S. aureus at 10^6 CFU/mouse; S. pneumoniae at 10^2 CFU/mouse; or E. faecalis at 10^7.5 CFU/mouse. […] The ED50 for each compound was calculated using the method of Reed and Meunch (Am. J. Hyg. 27: 493, 1938)."}, "[2]": {"test": "In vivo half-life after single i.v. administration, mice", "conditions": "female, Swiss CD1, mouse, plasma, iv, 10 mg/kg", "experimental": "Yet other exemplary in vivo models can be used to characterize the pharmacokinetics and pharmacodynamic parameters of antimicrobial compounds of this disclosure. Some parameters that can be measured include an in vivo half-life of a compound, elimination rate and clearance, volume of distribution, and bioavailability. For example, briefly, compounds can be administered as a single i.v. or oral (p.o.) dose in mice or rats. At various time points (ranging from 1 minute to 72 hours), blood from treated animals is collected and the concentration of lipopeptide derivative in the ex vivo plasma can be quantified by, for example, liquid chromatography with mass spectrometric detection (LC/MS). After quantification, pharmacokinetics parameters can be calculated using methods known in the art, such as a one compartment model with mono-exponential decay and linear regression analysis (see, e.g., Fantin et al., Antimicrob. Agents Chemotherap. 35: 1413. 1991).\nA pharmacokinetic parameter that can be measured, and which aids in determining efficacy, after a single i.v. administration of an antimicrobial lipopeptide derivative of the instant disclosure is the systemic half-life of the compound. Briefly, test compounds were dissolved in a 5% mannitol solution (pH was then adjusted) to a concentration of 1 mg/mL (w/v). A single intravenous injection in the lateral caudal vein of Swiss CD1 mice (5 to 6 weeks old, female) or Sprague Dawley rats (male) was used to administer the lipopeptide derivative at a final dose of 10 mg/kg. At various time points (ranging from about 4 minutes to about 24 hours for mice, and 48 or 72 hours for rats) mice were sacrificed and blood was harvested. The concentration of lipopeptide derivative in ex vivo plasma was quantified using liquid chromatography (LC) with mass spectrometric detection (MS)."}, "[3]": {"tested_on": "Streptococcus pyogenes SPY0001 (PenS)", "test": "Broad spectrum MIC, Table 17/18 column M", "assay_type": "cell-based", "conditions": "condition M of Table 17, in µg/mL", "experimental": "(§3) The antimicrobial lipopeptide derivatives described herein were tested for antimicrobial activity against Gram-positive bacteria as follows. The minimum inhibitory concentrations (MIC) of the antimicrobial lipopeptide derivatives of the invention were determined using NCCLS guidelines M7-A6 (2003) with a slight modification in that doubling serial dilutions were used to dilute the test compounds. The broth phase microdilution method was used. Isolated colonies of Staphylococcus aureus (MSSA) from an 18-24 hour blood agar plate cultures were used to inoculate cation adjusted Mueller-Hinton broth (CAMHB) supplemented with 0.625 mM calcium. […] A negative control containing media alone and a positive growth control containing bacteria with media alone were also included. MICs were determined after incubating the plates at about 37° C. for 24 hours. […] In Tables 1 to 16, R is the core cyclic peptide of amphomycin or aspartocin, which can be in the form of a β-isomer, an anhydro, a dianhydro, or any combination thereof. […] Furthermore, a person of skill in the art will appreciate that all the pounds, or groups of compounds, derived from the various combinations of and substituents shown in Tables 1 to 16, are disclosed by the present the same extent as if each compound or group of compounds was set forth individually.\n(§4) Antimicrobial lipopeptide derivatives of the instant invention were tested for antimicrobial activity against Gram-positive bacteria in a variety of media conditions. The […] (MIC) of the antimicrobial lipopeptide derivatives were determined as described in Example 376. The various media used are described in Table 17."}, "[4]": {"tested_on": "Staphylococcus aureus SAU0017 (MSSA)", "test": "Broad spectrum MIC, Table 17/18 columns E, F (+ 0.625 mM calcium; + calcium and 30% bovine serum)", "assay_type": "cell-based", "conditions": "in µg/mL", "experimental": "as §3, §4"}, "[5]": {"tested_on": "Staphylococcus aureus SAU0065 (MRSA)", "test": "Broad spectrum MIC, Table 17/18 column H", "assay_type": "cell-based", "conditions": "condition H of Table 17, in µg/mL", "experimental": "as §3, §4"}, "[6]": {"tested_on": "Streptococcus pneumoniae SPN0032 (PSSP)", "test": "Broad spectrum MIC, Table 17/18 column L", "assay_type": "cell-based", "conditions": "condition L of Table 17, in µg/mL", "experimental": "as §3, §4"}, "[7]": {"tested_on": "Streptococcus pneumoniae SPN0002 (PISP)", "test": "Broad spectrum MIC, Table 17/18 column J", "assay_type": "cell-based", "conditions": "condition J of Table 17, in µg/mL", "experimental": "as §3, §4"}, "[8]": {"tested_on": "Enterococcus faecium EFM0101 (VRE, MDR)", "test": "Broad spectrum MIC, Table 17/18 column A", "assay_type": "cell-based", "conditions": "condition A of Table 17, in µg/mL", "experimental": "as §3, §4"}, "[9]": {"tested_on": "Streptococcus pneumoniae SPN0023 (PRSP)", "test": "Broad spectrum MIC, Table 17/18 column K", "assay_type": "cell-based", "conditions": "condition K of Table 17, in µg/mL", "experimental": "as §3, §4"}, "[10]": {"tested_on": "Staphylococcus aureus SAU0031 (VISA)", "test": "Broad spectrum MIC, Table 17/18 column G", "assay_type": "cell-based", "conditions": "condition G of Table 17, in µg/mL", "experimental": "as §3, §4"}, "[11]": {"tested_on": "Staphylococcus aureus (MSSA)", "conditions": "24 h", "procedure,_shortened": "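Broth microdilution MIC per NCCLS M7-A6 with doubling serial dilutions, in cation-adjusted Mueller-Hinton broth supplemented with 0.625 mM calcium.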"}, "[12]": {"tested_on": "Enterococcus faecalis EFS0004 (VSE)", "test": "Broad spectrum MIC, Table 17/18 B, C, D (CAMHB; + 0.625 mM calcium; + calcium and 30% bovine serum)", "assay_type": "cell-based", "conditions": "in µg/mL", "experimental": "as §3, §4"}, "[13]": {"tested_on": "Staphylococcus epidermidis SEP0375 (MRSE)", "test": "Broad spectrum MIC, Table 17/18 column I", "assay_type": "cell-based", "conditions": "condition I of Table 17, in µg/mL", "experimental": "as §3, §4"}, "[14]": {"tested_on": "S. pneumoniae (SPN 0032, ATCC 10813)", "test": "Intraperitoneal murine model of protection against infection (ED50, Table 21)", "assay_type": "in vivo, Streptococcus pneumoniae", "conditions": "Swiss CD1 mice infected i.p., compound i.v.", "source_text": "as §1, §2"}},
  "data": [
    {"compound": "CCCCCCCCCCCCC(=O)NC(CC(=O)O)C(=O)NC1C(=O)N2CCCCC2C(=O)NC(C(C)C(=O)O)C(=O)NC(CC(=O)O)C(=O)NCC(=O)NC(CC(=O)O)C(=O)NCC(=O)NC(C(C)NC(=O)CNC(=O)[C@@H](N)CCCCN)C(=O)NC(C(C)C)C(=O)N2CCCC2C(=O)NC1C", "note": "(stereo partly shown) [Compound 128, C13-Amphomycin-9-Gly-Lys]", "values": [
      {"measurement": "ED50 in Mice, S. aureus (SAU0017)", "setting": "[1]", "result": 6.2, "unit": "mg/kg"},
      {"measurement": "half-life", "setting": "[2]", "result": 0.198, "unit": "h"}
    ]},
    {"compound": "CCCCCCCCCCCCCCNC(=O)NC(CC(=O)O)C(=O)NC1C(=O)N2CCCCC2C(=O)NC(C(C)C(=O)O)C(=O)NC(CC(=O)O)C(=O)NCC(=O)NC(CC(=O)O)C(=O)NCC(=O)NC(C(C)N)C(=O)NC(C(C)C)C(=O)N2CCCC2C(=O)NC1C", "note": "(stereo not shown) [Compound 253, CH3—(CH2)13—NH—C(═O)-Amphomycin]", "values": [
      {"measurement": "MIC, media condition M", "setting": "[3]", "result": 0.25},
      {"measurement": "ED50 in Mice, S. aureus (SAU0017)", "setting": "[1]", "result": 4.8, "unit": "mg/kg"},
      {"measurement": "MIC, media condition E", "setting": "[4]; condition E: + 0.625 mM calcium", "result": "0.5-1"},
      {"measurement": "MIC, media condition F", "setting": "[4]; condition F: + calcium and 30% bovine serum", "result": "2-4"},
      {"measurement": "MIC, media condition H", "setting": "[5]", "result": "1-2"},
      {"measurement": "half-life", "setting": "[2]", "result": 5.15, "unit": "h"},
      {"measurement": "MIC, media condition L", "setting": "[6]", "result": 0.125},
      {"measurement": "MIC, media condition J", "setting": "[7]", "result": 0.125},
      {"measurement": "MIC, media condition A", "setting": "[8]", "result": "0.5-1"},
      {"measurement": "MIC, media condition K", "setting": "[9]", "result": 0.125},
      {"measurement": "MIC, media condition G", "setting": "[10]", "result": "2-4"},
      {"measurement": "MIC", "setting": "[11]", "result": "0.5 to 1", "unit": "µg/mL"},
      {"measurement": "MIC, media condition B", "setting": "[12]; condition B: CAMHB", "result": 1},
      {"measurement": "MIC, media condition C", "setting": "[12]; condition C: + 0.625 mM calcium", "result": "0.5-1"},
      {"measurement": "MIC, media condition D", "setting": "[12]; condition D: + calcium and 30% bovine serum", "result": "16-32"},
      {"measurement": "MIC, media condition I", "setting": "[13]", "result": 1}
    ]},
    {"compound": "amphomycin [reference compound]", "values": [
      {"measurement": "ED50 in Mice, S. aureus (SAU0017)", "setting": "[1]", "result": 5.4, "unit": "mg/kg"},
      {"measurement": "ED50 in Mice, S. pneumoniae (SPN0032)", "setting": "[14]", "result": 2.0, "unit": "mg/kg"}
    ]},
    {"compound": "aspartocin [reference compound]", "values": [
      {"measurement": "ED50 in Mice, S. aureus (SAU0017)", "setting": "[1]", "result": 5.4, "unit": "mg/kg"},
      {"measurement": "ED50 in Mice, S. pneumoniae (SPN0032)", "setting": "[14]", "result": 0.65, "unit": "mg/kg"}
    ]}
  ]
}
